{"source": "patent US5593982A", "about": "“Cyclopentanperhydrophenanthren-17β-(3-furyl)-3-derivatives and pharmaceutical compositions comprising same for the treatment of cardiovascular disorders” (Sigma-Tau Industrie Farmaceutiche Riunite S.p.A., priority 1992, dated 1997)", "key": {"hypertensive MHS rats": {"tested_on": "hypertensive MHS rats", "test": "systolic blood pressure and heart rate in hypertensive MHS rats (indirect tail-cuff method)", "format": "in vivo, rat (MHS)", "details": "20 mg/Kg/os daily for ten days in METHOCEL 0.5% w/v, 7 rats; for SBP (systolic blood pressure): controls 171 ± 4.5; for HR (heart rate): controls 384 ± 11.0", "description": "The ability of these compounds to lower blood pressure in adult hypertensive MHS rats was tested by the following method: systolic blood pressure (SBP) and heart rate (HR) were measured by an indirect tail-cuff method in three-month old hypertensive MHS rats before beginning treatment (basal values). The rats were then subdivided in two groups of 7 animals each, one receiving the compound and the other, the control group, receiving only the vehicle. The compound, suspended in METHOCEL® 0.5% (w/v), for ten days, was administered daily by mouth. SBP and HR were measured daily 6 and 24 hours after the treatment. When ten-day treatment washout had been under way for at least two days, whether the treatment maintains SBP low or re-establish the basal values was verified. The affinity and the inhibitory activity of some ethers and of the reference compound (II-a) in the two tests are shown in the following table: […]"}, "[1]": {"target": "T1, purified Na^+,K^+ -ATPase (Canis lupus familiaris, UniProt P50997)", "T1 construct": "from tissue; mammalian kidney outer medulla by the cited Jorgensen 1974 method (own knowledge)", "test": "inhibition of the activity of the purified Na+,K+-ATPase measured as % of hydrolysis of 32P-ATP", "format": "biochemical", "details": "for IC50: hydrolysis of 32P-ATP, purified Na+,K+-ATPase, read-out: Inhibitory Activity log IC50 (converted)", "description": "(§1) To test the affinity for the receptor site of the Na^+,K^+ -ATPase and the agonist or antagonist activity on the enzyme, the following tests were used: a) displacement of the specific ^3 H-ouabain binding from the Na^+,K^+ -ATPase receptor purified according to Jorghensen (Jorghensen P., BBA, 1974, 356, 36) and Erdmann (Erdmann E. et al., Arzneim. Forsh., 1984, 34, 1314); b) inhibition of the activity of the purified Na^+,K^+ -ATPase measured as % of hydrolysis of ^32 P-ATP in presence and in absence of the tested compound (Mall F. et al., Biochem. Pharmacol., 1984, 33, 47)."}, "[2]": {"target": "T2, Na^+,K^+ -ATPase receptor (Canis lupus familiaris, UniProt P50997)", "T2 construct": "from tissue; mammalian kidney outer medulla by the cited Jorgensen 1974 method (own knowledge)", "test": "displacement of the specific 3H-ouabain binding from the purified Na+,K+-ATPase receptor", "details": "for IC50: displacement of specific 3H-ouabain binding, purified Na+,K+-ATPase, read-out: Binding 3H-Ouab. Displacement log IC50 (converted)", "description": "as §1"}}, "note": "pIC50: −log10 of the molar value. Like-named read-outs stand apart in the source and are kept apart here.", "data": [{"smiles": "C[C@]12CC[C@H](O)C[C@H]1CC[C@@H]1[C@@H]2CC[C@]2(C)[C@@H](c3ccoc3)CC[C@]12O", "note": "[Comp. II-a, 17β-(3-furyl)-5β-androstane-3β,14β-diol, reference compound]", "values": [{"measurement": "SBP (systolic blood pressure)", "setting": "hypertensive MHS rats", "result": "175 ± 4.1", "unit": "mm Hg"}, {"measurement": "HR (heart rate)", "setting": "hypertensive MHS rats", "result": "382 ± 9.0", "unit": "beats/min."}]}, {"smiles": "C[C@]12CC[C@H](SCCN)C[C@H]1CC[C@@H]1[C@@H]2CC[C@]2(C)[C@@H](c3ccoc3)CC[C@]12O", "note": "[Comp. I-bv, 3β-(2-Aminoethylthio)-17β-(3-furyl)-5β-androstan-14β-oloxalate]", "values": [{"measurement": "pIC50", "setting": "[1]", "result": 5.70}, {"measurement": "IC50", "setting": "[2]", "result": 501, "unit": "nM"}, {"measurement": "SBP (systolic blood pressure)", "setting": "hypertensive MHS rats", "result": "161 ± 4.2", "unit": "mm Hg"}, {"measurement": "HR (heart rate)", "setting": "hypertensive MHS rats", "result": "384 ± 6.7", "unit": "beats/min."}]}, {"smiles": "C[C@]12CC[C@H](SCCN3CCCC3)C[C@H]1CC[C@@H]1[C@@H]2CC[C@]2(C)[C@@H](c3ccoc3)CC[C@]12O", "note": "[Comp. I-bw, 3β-(2-(1-Pyrrolidinyl)ethylthio)-17β-(3-furyl)-5β-androstan-14β-ol]", "values": [{"measurement": "IC50", "setting": "[1]", "result": 3980, "unit": "nM"}, {"measurement": "IC50", "setting": "[2]", "result": 794, "unit": "nM"}, {"measurement": "SBP (systolic blood pressure)", "setting": "hypertensive MHS rats", "result": "157 ± 4.3", "unit": "mm Hg"}, {"measurement": "HR (heart rate)", "setting": "hypertensive MHS rats", "result": "392 ± 10.0", "unit": "beats/min."}]}, {"smiles": "C[C@]12CC[C@H](SCCOCCN3CCCC3)C[C@H]1CC[C@@H]1[C@@H]2CC[C@]2(C)[C@@H](c3ccoc3)CC[C@]12O", "note": "[Comp. I-by, 3β-(2-(2-(1-Pyrrolidinyl)ethoxy)ethylthio)-17β-(3-furyl)-5β-androstan-14β-ol]", "values": [{"measurement": "pIC50", "setting": "[1]", "result": 6.00}, {"measurement": "pIC50", "setting": "[2]", "result": 6.80}, {"measurement": "SBP (systolic blood pressure)", "setting": "hypertensive MHS rats", "result": "154 ± 6.3", "unit": "mm Hg"}, {"measurement": "HR (heart rate)", "setting": "hypertensive MHS rats", "result": "395 ± 8.7", "unit": "beats/min."}]}, {"smiles": "C[C@]12CC[C@H](OCCCN3CCCC3)C[C@H]1CC[C@@H]1[C@@H]2CC[C@]2(C)[C@@H](c3ccoc3)CC[C@]12O", "note": "[Comp. I-ae]", "values": [{"measurement": "pIC50", "setting": "[1]", "result": 6.10}, {"measurement": "pIC50", "setting": "[2]", "result": 6.90}, {"measurement": "SBP (systolic blood pressure)", "setting": "hypertensive MHS rats", "result": "154 ± 6.3", "unit": "mm Hg"}, {"measurement": "HR (heart rate)", "setting": "hypertensive MHS rats", "result": "395 ± 8.7", "unit": "beats/min."}]}, {"smiles": "C[C@]12CC[C@H](OCCNCCN3CCCC3)C[C@H]1CC[C@@H]1[C@@H]2CC[C@]2(C)[C@@H](c3ccoc3)CC[C@]12O", "note": "[Comp. I-ag, 3β-(2-(2-(1-Pyrrolidinyl)ethylamino)ethoxy)-17β-(3-furyl)-5β-androstan-14β-ol]", "values": [{"measurement": "pIC50", "setting": "[1]", "result": 5.80}, {"measurement": "pIC50", "setting": "[2]", "result": 6.80}, {"measurement": "SBP (systolic blood pressure)", "setting": "hypertensive MHS rats", "result": "162 ± 5.0", "unit": "mm Hg"}, {"measurement": "HR (heart rate)", "setting": "hypertensive MHS rats", "result": "377 ± 9.0", "unit": "beats/min."}]}, {"smiles": "C[C@]12CC[C@H](OCCSCCN3CCCC3)C[C@H]1CC[C@@H]1[C@@H]2CC[C@]2(C)[C@@H](c3ccoc3)CC[C@]12O", "note": "[Comp. I-ai, 3β-(2-(2-(1-Pyrrolidinyl)ethylthio)ethoxy)-17β-(3-furyl)-5β-androstan-14β-ol]", "values": [{"measurement": "pIC50", "setting": "[1]", "result": 6.20}, {"measurement": "pIC50", "setting": "[2]", "result": 6.70}, {"measurement": "SBP (systolic blood pressure)", "setting": "hypertensive MHS rats", "result": "160 ± 4.7", "unit": "mm Hg"}, {"measurement": "HR (heart rate)", "setting": "hypertensive MHS rats", "result": "390 ± 8.9", "unit": "beats/min."}]}, {"smiles": "C[C@]12CC[C@H](OCCCN)C[C@H]1CC[C@@H]1[C@@H]2CC[C@]2(C)[C@@H](c3ccoc3)CC[C@]12O", "note": "[Comp. I-ab, 3β-(3-Aminopropoxy)-17β-(3-furyl)-5β-androstan-14β-ol]", "values": [{"measurement": "IC50", "setting": "[1]", "result": 1260, "unit": "nM"}, {"measurement": "pIC50", "setting": "[2]", "result": 6.90}, {"measurement": "SBP (systolic blood pressure)", "setting": "hypertensive MHS rats", "result": "157 ± 4.9", "unit": "mm Hg"}, {"measurement": "HR (heart rate)", "setting": "hypertensive MHS rats", "result": "371 ± 10.0", "unit": "beats/min."}]}, {"smiles": "C[C@]12CC[C@H](OCCNC(=N)N)C[C@H]1CC[C@@H]1[C@@H]2CC[C@]2(C)[C@@H](c3ccoc3)CC[C@]12O", "note": "[Comp. I-al, 3β-(2-Guanidinoethoxy)-17β-(3-furyl)-5β-androstan-14β-ol nitrate]", "values": [{"measurement": "pIC50", "setting": "[1]", "result": 5.80}, {"measurement": "pIC50", "setting": "[2]", "result": 6.90}, {"measurement": "SBP (systolic blood pressure)", "setting": "hypertensive MHS rats", "result": "159 ± 5.0", "unit": "mm Hg"}, {"measurement": "HR (heart rate)", "setting": "hypertensive MHS rats", "result": "393 ± 9.0", "unit": "beats/min."}]}]}
